The supplement of paper PMC10307832

What was measured:
Experiment in all cases: relative viability (nuclei count vs DMSO), 5 days (fraction); higher = more cells survive
[1] = compound: CN[C@@H]1C[C@H]2O[C@@](C)([C@@H]1OC)n1c3ccccc3c3c4c(c5c6ccccc6n2c5c31)C(=O)NC4 [Staurosporine] + Cc1nc(Nc2ncc(C(=O)Nc3c(C)cccc3Cl)s2)cc(N2CCN(CCO)CC2)n1 [Dasatinib] (partner 0.075 µM)
How it was run: (§1)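 Nuclei were stained with Hoechst during a one-step fixation (final 0.05% Triton X-100, 1% formaldehyde, 1 ug/ml Hoechst) carried out 5 days after dosing, then counted on 4× images. The cells, lung cancer lines in 1536-well plates, had been dosed by pin tool the day after seeding with one drug alone or a fixed anchor-drug dose plus five library-drug doses (not always all listed) in √10 steps. Relative viability is the nuclei count in treated wells divided by that in vehicle wells, and each value is the median of duplicate plates.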

[2] = compound: CN[C@@H]1C[C@H]2O[C@@](C)([C@@H]1OC)n1c3ccccc3c3c4c(c5c6ccccc6n2c5c31)C(=O)NC4 [Staurosporine] + N=C(N)NC(=N)NCCc1ccccc1 [Phenformin] (partner 250 µM)
How it was run: as §1

Staurosporine + AZD7762 = compound: CN[C@@H]1C[C@H]2O[C@@](C)([C@@H]1OC)n1c3ccccc3c3c4c(c5c6ccccc6n2c5c31)C(=O)NC4 [Staurosporine] + NC(=O)Nc1cc(-c2cccc(F)c2)sc1C(=O)N[C@H]1CCCNC1 [AZD7762] (partner 0.2 µM)
How it was run: as §1

[3] = compound: O=c1[nH]cc(F)c(=O)[nH]1 [5-Fluorouracil] + Nc1ncn([C@H]2C[C@H](O)[C@@H](CO)O2)c(=O)n1 [Decitabine] (partner 2 µM)
How it was run: as §1

Cell Line	relative viability ([1]; first compound 0.005 µM)	relative viability ([1]; first compound 0.05 µM)	relative viability ([1]; first compound 0.1581 µM)	relative viability ([1]; first compound 0.5 µM)	relative viability ([2]; first compound 0.005 µM)	relative viability ([2]; first compound 0.05 µM)	relative viability ([2]; first compound 0.1581 µM)	relative viability ([2]; first compound 0.5 µM)	relative viability (Staurosporine + AZD7762; first compound 0.005 µM)	relative viability (Staurosporine + AZD7762; first compound 0.05 µM)	relative viability (Staurosporine + AZD7762; first compound 0.1581 µM)	relative viability (Staurosporine + AZD7762; first compound 0.5 µM)	relative viability ([3]; first compound 0.02 µM)	relative viability ([3]; first compound 0.2 µM)	relative viability ([3]; first compound 0.6325 µM)	relative viability ([3]; first compound 2 µM)	relative viability ([2]; first compound 0.01581 µM)	relative viability ([1]; first compound 0.01581 µM)	relative viability (Staurosporine + AZD7762; first compound 0.01581 µM)
201T	0.55	0.544	0.402	0.279	0.422	0.343	0.266	0.198	0.599	0.498	0.579	0.342	0.885	0.559	0.3	0.257			
A549					0.127	0.0465	0.031	0.0233					0.296	0.264	0.252	0.224	0.025		
A-427	0.5	0.183	0.0891	0.128	0.189	0.109	0.0973	0.123	0.545	0.246	0.169	0.142	0.526	0.603	0.544	0.479	0.114	0.206	0.305
ABC-1	0.341	0.167	0.109	0.139	0.169	0.0951	0.0728	0.105	0.3	0.393	0.642	0.0806	1.25	0.959	0.944	0.87	0.205	0.193	0.496
BEN	0.288	0.356	0.236	0.167	0.247	0.211	0.197	0.184	0.946	0.761	0.316	0.294	0.743	0.743	0.746	0.681		0.288	0.776
CAL-12T	0.14	0.0772	0.107	0.0737	0.205	0.235	0.103	0.112	0.416	0.409	0.257	0.167					0.165	0.0881	0.338
COR-L23	0.309	0.17	0.112	0.0512	0.243	0.14	0.0737	0.0585					0.452	0.449	0.412	0.254	0.18	0.186	
COR-L 105	0.281	0.158	0.155	0.157	0.312	0.176	0.207	0.181					0.763	0.677	0.719	0.438	0.217		
ChaGo-K-1	0.621	0.475	0.147	0.128	0.461	0.351	0.158	0.123	0.912	0.615	0.148	0.135	0.573	0.519	0.435	0.439	0.233	0.491	
EKVX	0.666	0.201	0.202	0.161	0.172	0.159	0.142	0.118	0.239	0.286	0.321		0.297				0.119	0.282	0.119
EMC-BAC-2	0.213	0.198	0.167	0.152	0.252	0.17	0.189	0.164	0.352	0.203	0.262	0.192	1.01	1.08	0.97	1.01	0.179	0.197	0.215
EPLC-272H	0.179	0.0709	0.0723	0.103	0.22	0.0721	0.0546	0.0603	0.235	0.111	0.0612	0.0657	0.357	0.305	0.224	0.22	0.0782	0.0602	0.145
H3255	0.271	0.255	0.19	0.248	0.326	0.249	0.181	0.14	0.658	0.324	0.204	0.126	0.694	0.629	0.645	0.488	0.28	0.247	0.474
HARA	0.289	0.127	0.145	0.0757	0.374	0.211	0.133	0.0495	0.278	0.262		0.029	0.519	0.533	0.605	0.488			0.169
HCC-15	0.494	0.229	0.11	0.0769	0.344	0.19	0.112	0.0964	1.28	1.22	0.736	0.302	0.751	0.711	0.63	0.476			
HCC-44					0.104	0.0757	0.0829	0.0953	0.999	0.911	0.565	0.307	1.07	0.96	0.94	0.77	0.0863		
HCC-78	0.357	0.339	0.26	0.264	0.639	0.486	0.376	0.287	0.674	0.438	0.375	0.326	0.711	0.726	0.427	0.327	0.45	0.295	0.463
HCC-366	0.981	0.22	0.0316	0.022	0.708	0.519	0.283	0.0201	0.255	0.165	0.0217	0.0248	0.344	0.32	0.194	0.128			
HCC-827	0.391	0.372	0.319	0.305	0.43	0.214	0.167		0.204	0.153	0.143	0.115	0.298	0.431	0.36	0.297	0.35	0.423	0.179
